Laboratory results reported in PubChem BioAssay AID1963977 (Molecular Pharmacology Branch, DTP, NCI, 2024).

Tested on: 624824-186-R-J3-PDC multicell spheroids, viability
Experiment: Anticancer human tumor 624824-186-R-J3-PDC patient-derived colon adenocarcinoma cell line growth inhibition [PI3K]
Conditions: for IC50: curve of first compound; for viability, T/C: stronger effect = lower value
Outline: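 Agents were dosed from a top concentration near clinical Cmax (otherwise 10 microM) in half-log decrements, alone or combined with PI3K inhibitors. The spheroids contain tumor cells plus endothelial (HUVEC) and MSC stroma; viability is measured.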
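Also: spheroids exposed to agents for seven days before luminescence read.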
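For viability, T/C in this document: luminescent signal used as a stand-in for spheroid viability; percent viability relative to DMSO vehicle control wells taken as 100%.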

Cn1cnc2c(F)c(Nc3ccc(Br)cc3Cl)c(C(=O)NOCCO)cc21 + CC(Nc1ncnc2nc[nH]c12)c1cc2cccc(Cl)c2c(=O)n1-c1ccccc1
IC50 (second compound 0.0316 µM): 2.02 µM
IC50 (second compound 0.1 µM): 1.54 µM
IC50 (second compound 0.316 µM): 1.68 µM
IC50 (second compound 1 µM): 1.28 µM
IC50 (second compound 3.16 µM): 0.688 µM
IC50 (second compound 10 µM): 0.297 µM
viability, T/C (second compound 0.0316 µM, first compound 0.00949 µM): 102%
viability, T/C (second compound 0.0316 µM, first compound 0.03 µM): 87.3%
viability, T/C (second compound 0.0316 µM, first compound 0.0949 µM): 103%
viability, T/C (second compound 0.0316 µM, first compound 0.3 µM): 74.2%
viability, T/C (second compound 0.0316 µM, first compound 0.949 µM): 66.8%
viability, T/C (second compound 0.0316 µM, first compound 3 µM): 42.2%
viability, T/C (second compound 0.1 µM, first compound 0.00949 µM): 96.5%
viability, T/C (second compound 0.1 µM, first compound 0.03 µM): 84.3%
viability, T/C (second compound 0.1 µM, first compound 0.0949 µM): 101%
viability, T/C (second compound 0.1 µM, first compound 0.3 µM): 80.8%
viability, T/C (second compound 0.1 µM, first compound 0.949 µM): 59.8%
viability, T/C (second compound 0.1 µM, first compound 3 µM): 37.6%
viability, T/C (second compound 0.316 µM, first compound 0.00949 µM): 95.8%
viability, T/C (second compound 0.316 µM, first compound 0.03 µM): 98.6%
viability, T/C (second compound 0.316 µM, first compound 0.0949 µM): 81.3%
viability, T/C (second compound 0.316 µM, first compound 0.3 µM): 86.1%
viability, T/C (second compound 0.316 µM, first compound 0.949 µM): 59.2%
viability, T/C (second compound 0.316 µM, first compound 3 µM): 38.6%
viability, T/C (second compound 1 µM, first compound 0.00949 µM): 97.4%
viability, T/C (second compound 1 µM, first compound 0.03 µM): 106%
viability, T/C (second compound 1 µM, first compound 0.0949 µM): 87.7%
viability, T/C (second compound 1 µM, first compound 0.3 µM): 80.3%
viability, T/C (second compound 1 µM, first compound 0.949 µM): 56.4%
viability, T/C (second compound 1 µM, first compound 3 µM): 31.5%
viability, T/C (second compound 3.16 µM, first compound 0.00949 µM): 91%
viability, T/C (second compound 3.16 µM, first compound 0.03 µM): 91.3%
viability, T/C (second compound 3.16 µM, first compound 0.0949 µM): 80.7%
viability, T/C (second compound 3.16 µM, first compound 0.3 µM): 67.2%
viability, T/C (second compound 3.16 µM, first compound 0.949 µM): 43.2%
viability, T/C (second compound 3.16 µM, first compound 3 µM): 27.4%
viability, T/C (second compound 10 µM, first compound 0.00949 µM): 101%
viability, T/C (second compound 10 µM, first compound 0.03 µM): 80.6%
viability, T/C (second compound 10 µM, first compound 0.0949 µM): 74.3%
viability, T/C (second compound 10 µM, first compound 0.3 µM): 47.4%
viability, T/C (second compound 10 µM, first compound 0.949 µM): 31.7%
viability, T/C (second compound 10 µM, first compound 3 µM): 18.1%
